≈ marks a conversion by molar mass, not a printed value.

From patent US5989875A, “Method of process for producing L-lysine by fermentation” (priority 1995, dated 1999) come the findings set out here.

The subject of data set [1] is GT3/pLYSC1 strain. Put plainly: Growth of GT3/pLYSC1 on M9 media containing L-lysine or AEC. It counts as cell-based, E. coli. The settings on record: for Growth of GT3/pLYSC1: M9 agar. The protocol: (§1) A transformed strain obtained by introducing pLYSC1 into the AK completely deficient strain, E. coli GT3 was designated as GT3/pLYSC1, and a transformed strain obtained by introducing pLYSC2 into the E. coli GT3 was designated as GT3/pLYSC2. A considerable amount of L-lysine was added to the minimal medium M9, and the GT3/pLYSC1 strain and the GT3/pLYSC2 strain were each cultivated. Both of the GT3/pLYSC1 strain and the GT3/pLYSC2 strain harbor plasmids containing the wild type lysC, in which AKIII encoded by lysC on the plasmids is a sole AK. The wild type AKIII as the sole AK is inhibited by L-lysine in the presence of a considerable amount of L-lysine.
(§2) The GT3/pLYSC1 strain and the GT3/pLYSC2 strain were cultivated on M9 agar plate media containing various concentrations of L-lysine or AEC, respectively. Growth inhibitory concentrations by L-lysine and AEC were examined, and a selection condition was investigated for a strain harboring a plasmid containing lysC*.
(§3) In this table, + indicates growth of transformant, ± indicates a little growth, and - indicates no growth.

Data set [2] relates to W3110/pdapA1 strain. Put plainly: Growth of W3110/pdapA1 on M9 media containing AEC. It counts as cell-based, E. coli. The method, then:
(§4) A transformed strain obtained by introducing pdapA1 into a wild type E. coli W3110 strain (available from National Institute of Genetics (Mishima-shi, Shizuoka-ken, Japan)) was designated as W3110/pdapA1, and a transformed strain obtained by introducing pdapA2 into the E. coli W3110 strain was designated as W3110/pdapA2, respectively. These two transformed strains were cultivated respectively in a minimal medium M9 having the following composition to which AEC as an analog of lysine was added. The W3110 strain with no introduced plasmid was also cultivated in the same medium as a control.
(§5) The W3110/pdapA1 strain and the W3110/pdapA2 strain obtained as described above were cultivated on M9 agar plate media containing various concentrations of AEC, respectively. Growth inhibitory concentrations by AEC were examined, and a selection condition was investigated for a strain harboring a plasmid containing dapA*.
(§6) In this table, + indicates growth of transformant, and - indicates no growth.

Data set [3] concerns W3110 strain. Put plainly: Growth of W3110 strain with no plasmid in minimal medium M9 with AEC. It counts as cell-based, E. coli. The settings on record: W3110 strain having no plasmid. The protocol: as §4
Data set [4] concerns W3110/pdapA2 strain. As to the kind of experiment: Growth of W3110/pdapA2 on M9 media containing AEC. It counts as cell-based, E. coli. As to conditions: for Growth of W3110/pdapA2: M9 agar. The protocol: as §4, §5, §6
Data set [5] relates to GT3/pLYSC2 strain. As to the kind of experiment: Growth of GT3/pLYSC2 on M9 media containing L-lysine or AEC. It counts as cell-based, E. coli. As to conditions: M9 agar. The protocol:
as §1, §2, §3

Data set [6] relates to AKIII. Put plainly: Heat stability of AKIII in vitro. The settings on record: ratio of activity maintenance after treatment at 55° C. for 1.5 hour. It counts as biochemical, E. coli. The source says: (§7) On the contrary, although the mutant AKIII's obtained this time had various degrees of desensitization, inhibition by L-lysine was desensitized in all of 14 species. […] The specific activity based on total protein, which might be affected by growth situations of cell and preparation of samples, was equal to or more than that of the wild type in almost all cases, and there was little problem of decrease in activity due to the introduction of mutation (Table 3). According to this fact, it was expected that an active center of AKIII was independent from a regulatory site by L-lysine with each other. In Table 3, the inhibition desensitization degree (%) refers to an AK activity in the presence of 100 mM of L-lysine compared with an AK activity in the absence of L-lysine in the reaction solution. The heat stability (%) refers to a ratio of activity maintenance after a treatment at 55° C. for 1.5 hour.
Subsequently, the heat stability of the mutant enzymes was examined. When it is intended that an enzyme is improved to increase its activity, it is important that a created enzyme is maintained stably in cells. […]
Judging from results of investigation on the inactivation temperature of AKIII under various conditions, the ratio of activity maintenance after a treatment at 55° C. for 90 minutes was measured. […]

Data set [7] relates to AKIII. Put plainly: Enzyme activity of AKIII and inhibition by L-lysine (cell-free extract). It counts as biochemical, E. coli.
Text: No. 24, No. 43, No. 48, No. 60, No. 80, No. 117, No. 126, No. 149, No. 150, No. 156, No. 158, No. 167, No. 169 and No. 172 were selected as representative strains of the aforementioned 14 groups. Mutant plasmids derived from pLYSC1 were recovered from each of them, and designated as pLYSC1*24, pLYSC1*43, pLYSC1*48, pLYSC1*60, pLYSC1*80, pLYSC1*117, pLYSC1*126, pLYSC1*149, pLYSC1*150, pLYSC1*156, pLYSC1*158, pLYSC1*167, pLYSC1*169 and pLYSC1*172, respectively. An AK completely deficient strain GT3 was transformed with them and the wild type pLYSC1. A cell-free extract was prepared from each of transformed strains, and the enzyme activity of AKIII was measured.
The cell-free extract (crude enzyme solution) was prepared as follows. A transformed strain was cultivated in a 2 x TY medium, and collected at an OD660 of about 0.8. Cells were washed with 0.02 M KH2 PO4 (pH 6.75)-0.03 M β-mercaptoethanol under a condition of 0° C., and the cells were disrupted by sonication (0° C., 100 W, 30 minutes×4). A disrupted cell solution was centrifuged at 33 krpm for 1 hour under a condition of 0° C. to obtain a supernatant to which ammonium sulfate was added to give 80% saturation. After centrifugation, a pellet was dissolved in 0.02 M KH2 PO4 (pH 6.75)-0.03 M β-mercaptoethanol, and stored at 0° C. overnight.
The enzyme activity of AKIII was measured in accordance with a method of Stadtman et al. (Stadtman, E. R., Cohen, G. N., LeBras, G., and Robichon-Szulmajster, H., J. Biol. Chem., 236, 2033 (1961)). Namely, a reaction solution having the following composition was incubated at 27° C. for 45 minutes, and an FeCl3 solution (2.8 N HCl 0.4 ml+12% TCA 0.4 ml+5% FeCl3 ·6H2 O/0.1 N HCl 0.7 ml) was added thereto to develop a color, and it was centrifuged followed by measurement of absorbance of a supernatant at 540 nm. The activity was indicated by an amount of hydroxamic acid generated per minute (1 U=1 μmol/min). The molar absorption coefficient was 600. Potassium aspartate was removed from the reaction solution to be used as a blank.
In measurement of the enzyme activity of AK, various concentrations of L-lysine were added to the enzyme reaction solution and the degree of inhibition by L-lysine was examined.
as §7

`NCCSC[C@H](N)C(=O)O` [AEC, S-2-aminoethylcysteine]: the MIC in data set [1] (Escherichia coli, GT3, read-out: Allotment of addition in which growth was completely suppressed) amounted to 0.2 mM (≈ 32.8 µg/mL); in data set [2] (Escherichia coli, W3110/pdapA1 strain, M9 agar, read-out: Allotment of addition in which growth was suppressed), 30 mM (≈ 4930 µg/mL); in data set [4] (Escherichia coli, read-out: Allotment of addition in which growth was suppressed), 15 mM (≈ 2460 µg/mL). For the same molecule, the “Growth of GT3/pLYSC1” value in data set [1] (AEC 0.2 mM), in data set [1] (AEC 0.4 mM), in data set [1] (AEC 0.8 mM), in data set [1] (AEC 1.5 mM), in data set [1] (AEC 3 mM) and in data set [1] (AEC 6 mM) was “-” each time. In addition, the “Growth of GT3/pLYSC1” value in data set [1] (AEC 12 mM), in data set [1] (AEC 25 mM) and in data set [1] (AEC 50 mM) was “-” in each case. Further, the “Growth of W3110/pdapA1” value in data set [2] (M9 agar, AEC 2 mM) was “+”; in data set [2] (M9 agar, AEC 4 mM) it was “+”; in data set [2] (M9 agar, AEC 8 mM), “+”; in data set [2] (M9 agar, AEC 15 mM), “+”; in data set [2] (M9 agar, AEC 30 mM), “-”; in data set [2] (M9 agar, AEC 60 mM), “-”. The “Growth of W3110/pdapA1” value in data set [2] (M9 agar, AEC 125 mM) is listed as “-”; in data set [2] (M9 agar, AEC 250 mM) it was “-”. Further, the “Growth in minimal medium M9 to which AEC was added” value in data set [2] (W3110/pdapA1), in data set [3] and in data set [4] (W3110/pdapA2) was “suppressed in growth” throughout. For the same molecule, the “Growth of W3110/pdapA2” value in data set [4] (AEC 2 mM) was “+”; in data set [4] (AEC 4 mM), “+”; in data set [4] (AEC 8 mM) it was “+”; in data set [4] (AEC 15 mM) it was “-”; in data set [4] (AEC 30 mM), “-”; in data set [4] (AEC 60 mM) it was “-”. Further, the “Growth of W3110/pdapA2” value in data set [4] (AEC 125 mM) and in data set [4] (AEC 250 mM) was “-” throughout. In data set [5] (GT3/pLYSC2 strain), the “Allotment of addition up to which growth was not suppressed” value came out at 3 mM. Besides, the “Growth of GT3/pLYSC2” value is reported as “±” in data set [5] (AEC 0.2 mM); “±” in data set [5] (AEC 0.4 mM); “±” in data set [5] (AEC 0.8 mM); “±” in data set [5] (AEC 1.5 mM); “±” in data set [5] (AEC 3 mM); “-” in data set [5] (AEC 6 mM). The “Growth of GT3/pLYSC2” value in data set [5] (AEC 12 mM), in data set [5] (AEC 25 mM) and in data set [5] (AEC 50 mM) was “-” in each case.

B1: Wild type: wild type aspartokinase III of E. coli encoded by lysC, SEQ ID NO:8 (protein)
chain: MSEIVVSKFGGTSVADFDAMNRSADIVLSDANVRLVVLSASAGITNLLVALAEGLEPGERFEKLDAIRNIQFAILERLRYPNVIREEIERLLENITVLAEAAALATSPALTDELVSHGELMSTLLFVEILRERDVQAQWFDVRKVMRTNDRFGRAEPDIAALAELAALQLLPRLNEGLVITQGFIGSENKGRTTTLGRGGSDYTAALLAEALHASRVDIWTDVPGIYTTDPRVVSAAKRIDEIAFAEAAEMATFGAKVLHPATLLPAVRSDIPVFVGSSKDPRAGGTLVCNKTENPPLFRALALRRNQTLLTLHSLNMLHSRGFLAEVFGILARHNISVDLITTSEVSVALTLDTTGSTSTGDTLLTQSLLMELSALCRVEVEEGLALVALIGNDLSKACGVGKEVFGVLEPFNIRMICYGASSHNLCFLVPGEDAEQVVQKLHSNLFE
For B1, the Heat stability in data set [6] is reported as 18%. Besides, in data set [7] (AK activity in the presence of 100 mM of L-lysine compared with AK activity in the absence of L-lysine), the “Degree of desensitization of inhibition” value amounted to 0%. In addition, the Specific activity in data set [7] (AKIII, cell-free extract of GT3 transformants, 1 U=1 μmol/min) is on record as 0.0247 U/mg protein. Moreover, the “Inhibition of AKIII by L-lysine” value in data set [7] (various concentrations of L-lysine, FIG. 6) is on record as “strongly suffered inhibition by L-lysine”.
